{"source": "patent US11649228B2", "about": "“Zinc indicators for cellular imaging” (The Board of Regents of the University of Texas System, priority 2018, dated 2023)", "key": {"[1]": {"settings": "Table 2, previously reported sensors, cited from earlier work; for Kd: read-out: Kd(Zn^2+)"}, "[2]": {"test": "Photochemical characterization of ZIGIRs in vitro (absorption, emission, quantum yield)", "type": "physicochemical", "settings": "for fluorescence quantum yield: Zn^2+-bound state; for ε (extinction coefficient): in M-1·cm-1 (unit assumed); for ϕfl × ε (fluorescence brightness): in M^-1 cm^-1 (unit assumed)", "description": "(§1) UV-Vis spectra were recorded in a 1-cm path quartz cell on a Shimadzu 2401 PC spectrometer. Fluorescence excitation and emission spectra were recorded on a Fluorolog 3 spectrometer (Jobin-Yvon Horiba, Edison, N.J.). Zinc titration was performed by adding ZIGIRs (0.5 μM final concentration) to buffered Zn^2+ solutions containing 100 mM HEPES (pH 7.4). Nitrilotriacetic acid (NTA, 10 mM) and varying concentrations of ZnSO4 (0-9 mM) were mixed to reach free Zn^2+ concentrations between 0.1 nM and 40 nM (Li et al., 2011). Zn^2+ concentrations above 40 nM were controlled by iminodiacetate (IDA, 10 mM) and varying amounts of ZnSO4 (0-9.7 mM) in 100 mM HEPES (pH 7.4; Sasaki et al., 2011). To determine Zn^2+ binding dissociation constants (Kd(Zn^2+)), the Zn^2+ titration data were fitted to the least square exponential equation (Prism 7). Fluorescence quantum yields of ZIGIRs at pH 7.5 were determined using rhodamine 6G as the reference (Φfl=0.94 in MeOH; Magde et al., 2002). An example in shown FIGS. 11A0B. To examine the pH sensitivity of ZIGIRs, the fluorescence emission spectra was recorded from pH 3-9.4 in either nominally Zn^2+-free solutions containing 5 mM iminodiacetate or in 25 μM ZnSO4 solutions. The pH was controlled with 10 mM pH buffers including chloroacetic acid (pH 3.1), acetate (pH 4.1 and 5.0), 2-morpholinoethanesulfonic acid (MES, pH 6.14), HEPES (pH 7.5) and N-cyclohexyl-2-aminoethanesulfonic acid (CHES, pH 9.4)."}, "[3]": {"test": "Zn^2+ titration of ZIGIRs by fluorescence emission (Hill plot)", "type": "binding", "description": "as §1"}, "[4]": {"test": "pH sensitivity of ZIGIR fluorescence", "type": "physicochemical", "settings": "same Zn^2+ level", "description": "as §1, with “The pH was controlled with 10 mM pH buffers including chloroacetic acid (pH 3.1), acetate (pH 4.1 and 5.0), 2-morpholinoethanesulfonic acid (MES, pH 6.14), HEPES (pH 7.5) and N-cyclohexyl-2-aminoethanesulfonic acid (CHES, pH 9.4).” left out"}, "[5]": {"test": "Metal ion selectivity of fluorescence response", "type": "physicochemical", "settings": "1 μM sensor, 10 μM TPEN; against Na^+, K^+, Ca^2+, Mg^2+, Fe^2+, Ni^2+, Co^2+, Cu^2+, Mn^2+", "description": "To study the metal selectivity, the fluorescence of ZIGIR-1 (1 μM) or ZIGIR-2 (1 μM) was measured in the presence of 10 μM TPEN and an excess of metal ion including 1 mM KCl, 1 mM NaCl, 1 mM CaSO4, 1 mM MgSO4, 15 μM MnSO4, 15 μM FeSO4, 15 μM NiSO4, 15 μM CoCl2, 15 μM CuSO4, 15 μM CdSO4 or 15 μM ZnSO4. The emission intensity was normalized to that of 15 μM ZnSO4 (100%)."}}, "note": "Where two headings read alike, the source gives them in different places.", "data": [{"smiles": "COc1ccc(N(CC(=O)O)CC(=O)O)c(OCCOc2cc(-c3c4cc(F)c(=O)cc-4oc4cc(O)c(F)cc34)ccc2NCC(=O)O)c1", "note": "[FluoZin-3]", "values": [{"measurement": "Zn^2+ response (fold change)", "setting": "[1]", "result": ">100", "unit": "×"}, {"measurement": "Kd", "setting": "[1]", "result": 15, "unit": "nM"}]}, {"smiles": "Cc1cc2c(c(CN(Cc3ccccn3)Cc3cnccn3)c1)OC1(CC2)C(C)c2ccccc2N1C", "note": "(centres unmarked) [SpiroZin2]", "values": [{"measurement": "Zn^2+ response (fold change)", "setting": "[1]", "result": 8, "unit": "×"}, {"measurement": "Kd", "setting": "[1]", "result": 3.6, "unit": "nM"}]}, {"smiles": "CCN(CC)c1ccc2c(-c3ccc(NCCN(CCc4ccccn4)Cc4ccccn4)cc3C(=O)[O-])c3ccc(=[N+](CC)CC)cc-3oc2c1", "note": "[ZIGIR-3]", "values": [{"measurement": "absorption maximum", "setting": "[2]", "result": "around 555 nm"}, {"measurement": "emission maximum", "setting": "[2]", "result": "~580", "unit": "nm"}, {"measurement": "fluorescence quantum yield", "setting": "[2]", "result": 18, "unit": "%"}]}, {"smiles": "COc1cc(O)c(-c2nc3c(CNCc4ccccn4)cccc3o2)cc1OC", "note": "[ZINbo-5]", "values": [{"measurement": "Kd", "setting": "[1]", "result": 2.2, "unit": "nM"}]}, {"smiles": "CN=c1ccc2c(-c3ccc(NCCN(CCc4ccccn4)Cc4ccccn4)cc3C(=O)O)c3ccc(NC)cc3oc-2c1", "note": "[ZIGIR-1]", "values": [{"measurement": "FC (fold change in fluorescence brightness ϕfl×ε from Zn^2+-free to Zn^2+-bound state)", "setting": "[3]", "result": 50}, {"measurement": "fluorescence enhancement upon Zn^2+ binding", "setting": "[3]", "result": 50, "unit": "fold"}, {"measurement": "Kd", "setting": "[3]; 100 mM HEPES pH 7.4", "result": 290, "unit": "nM"}, {"measurement": "absorption maximum", "setting": "[2]", "result": "~520", "unit": "nm"}, {"measurement": "bathochromic shift in absorption maximum from Zn^2+-free to Zn^2+-bound state", "setting": "[2]", "result": 4, "unit": "nm"}, {"measurement": "λabd^max", "setting": "[2]; Zn^2+ bound", "result": 521, "unit": "nm"}, {"measurement": "λem^max", "setting": "[2]; Zn^2+ bound", "result": 543, "unit": "nm"}, {"measurement": "ϕfl (fluorescence quantum yield)", "setting": "[2]; Zn^2+ bound", "result": 0.30}, {"measurement": "ε (extinction coefficient)", "setting": "[2]; Zn^2+ bound", "result": "112,000"}, {"measurement": "ϕfl × ε (fluorescence brightness)", "setting": "[2]; Zn^2+ bound", "result": "33,600"}, {"measurement": "λabd^max", "setting": "[2]; Zn^2+ free", "result": 517, "unit": "nm"}, {"measurement": "λem^max", "setting": "[2]; Zn^2+ free", "result": 547, "unit": "nm"}, {"measurement": "ϕfl (fluorescence quantum yield)", "setting": "[2]; Zn^2+ free", "result": 0.008}, {"measurement": "ε (extinction coefficient)", "setting": "[2]; Zn^2+ free", "result": "85,200"}, {"measurement": "ϕfl × ε (fluorescence brightness)", "setting": "[2]; Zn^2+ free", "result": 682}, {"measurement": "fluorescence quantum yield", "setting": "[2]", "result": 30, "unit": "%"}, {"measurement": "fluorescence signal at pH 7.5 versus pH 5.0", "setting": "[4]", "result": "essentially the same fluorescence signal"}, {"measurement": "selectivity of fluorescence response for Zn^2+", "setting": "[5]", "result": "selective for Zn^2+"}]}]}
